{
  "source": "patent US12642865B2",
  "about": "“Toroidal mixed nanoparticle, method for preparing the same, and method for multifunctional delivery using the same” (China Medical University, priority 2022, dated 2026)",
  "key": {"[1]": {"tested_on": "HCT116-cell-bearing Balb-c/nude mice", "assay": "Histopathological analysis (H&E) of tumors and organs", "assay_type": "in vivo", "settings": "Day 16; control: livers, lungs, and spleens", "method": "The tumors and livers harvested from mice were preserved in 4% formalin overnight and the tumor and livers were embedded in paraffin to form paraffin tissue blocks. Afterwards, the tissues were sliced into 5-μm thick sections using a microtome (Leica RM 2145, Leica, Wetzlar, Germany). These sections were stained with H & E. The histopathological analysis was performed using an optical microscope (Optiphot-2, Nikon, Tokyo, Japan)."}, "[2]": {"assay": "Hepatic and renal functional evaluation (serum)", "assay_type": "in vivo, mice", "settings": "after 16 d", "from_the_text": "To investigate the efficacy of tumor inhibition, HCT116-cell-bearing 4-week-old female Balb-c/nude mice whose tumor sizes were up to 500 mm^3 were separated into 3 groups and each group contained 5 mice. […] The tumor size and weight were monitored every 2 to 3 days for 16-days post-injection. At day 16 post-injection, the mice were all euthanized, and their blood was collected. Meanwhile, the tumor and liver of mice were collected. The tumors were photographed after excluding the extreme ones. The blood samples were centrifugated under 3000 RPM for 10 min to obtain the serum samples for hepatic and renal functional evaluations. The hepatic function was assessed by the aspartate aminotransferase (AST) and alanine aminotransferase (ALT) values; the function of the kidneys was evaluated with the index of blood urea nitrogen (BUN) and creatinine."}},
  "data": [
    {"smiles": "NC1CCCCC1N.[Cl][Pt][Cl]", "note": "(centres unmarked) [DACHPt, dichloro(1,2-diaminocyclohexane)platinum(II)]", "values": [
      {"measurement": "tumor metastasis in organs (H&E sections)", "setting": "[1]", "value": "only observed in lungs"},
      {"measurement": "hepatic functional index ALT", "setting": "[2]", "value": "40 ± 3", "unit": "U/L"},
      {"measurement": "hepatic functional index AST", "setting": "[2]", "value": "134 ± 29", "unit": "U/L"},
      {"measurement": "renal functional index BUN", "setting": "[2]", "value": "32.9 ± 9.3", "unit": "mg/dL"},
      {"measurement": "renal functional index Creatinine", "setting": "[2]", "value": "0.44 ± 0.05", "unit": "mg/dL"}
    ]}
  ]
}
